Results reported in ChEMBL document CHEMBL1201862, “PubChem BioAssay data set” (2004).
The source made the active and inactive calls.

Key:
[1] = target: Sphingosine 1-phosphate receptor 2 (Homo sapiens, UniProt O95136); assay: Late-stage fluorescence-based dose-response cell-based counterscreen assay to identify agonists of the Sphingosine 1-Phosphate Receptor 3 (S1P3): Sphingosine 1-Phosphate Receptor 2 (S1P2) agonist assay.; format: functional
[2] = target: Sphingosine 1-phosphate receptor 4 (Homo sapiens, UniProt O95977); assay: Late-stage fluorescence-based dose-response cell-based counterscreen assay to identify agonists of the Sphingosine 1-Phosphate Receptor 3 (S1P3): Sphingosine 1-Phosphate Receptor 4 (S1P4) agonist assay.; format: functional
[3] = inhibitors of firefly luciferase expression or activity, dose response, H4 neuroglioma cells, luminescence (AID 1990); format: functional, cell-based
[4] = insulin promoter down-regulators in MIN6 cells, imaging, high-content screening, mouse beta cells (AID 1628); format: functional
cells [5] = format: functional, cell-based
[6] = Luminescence Cell-Based Dose Response HTS to Identify Inhibitors of 5'UTR Stem-Loop Driven Prion Protein mRNA Translation in H4 Neuroglioblastoma Cells. [Related pubchem assays: 1827 (Project Summary), 1813 (Primary HTS)]; format: functional
[7] = cytotoxicity in MIN6 insulinoma cells, dose response, cytotoxicity control, cell-based, mouse insulinoma (AID 2122); format: functional;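 also: confirmatory high-throughput counterscreen run to flag cytotoxic compounds; mouse MIN-6 beta cells carrying an insulin promoter eGFP reporter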
[8] = inhibitors of SNCA 5'UTR-driven reporter translation, confirmation, H4 neuroglioma cells, luminescence (AID 1988); format: functional, cell-based
cells [9] = format: functional, cell-based; remark: listed apart in the source
[10] = Luminescence Cell-Based Dose Retest to Confirm Inhibitors of Cancer Stem Cells. [Related pubchem assays (depositor defined):AID2717, AID2721]; format: functional; conditions: Homo sapiens
HEK293 = assay: inhibitors of LMP1-driven NF-kB reporter, dose response, cell-based, HEK293, luciferase, cherry-pick (AID 588343); format: functional; conditions: Homo sapiens
[11] = target: Latent membrane protein 1 (Human herpesvirus 4 (strain B95-8), UniProt P03230); assay: TES1-eGFP NF-kB reporter inhibition versus Tet-On dsRED, dose response, selectivity assay for LMP1 NF-kB inhibitor project, imaging, HEK293T, dual-color eGFP/dsRED, cherry-picks (AID 588398); format: functional, cell-based
INS1 = assay: beta cell apoptosis inhibitors, cytokine rescue, dose response, luminescence, retest (AID 449756); format: functional, cell-based; conditions: Rattus norvegicus;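 also: cell death triggered by IL-1 beta plus TNF-alpha plus IFN-gamma mixture; protective hits raise ATP signal compared with cytokine alone wells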
[12] = microbe, parasite or virus in culture; format: functional; conditions: Mycobacterium tuberculosis
[13] = growth suppression of PTEN-null colon cells, dose response, cell-based, HCT116 PTEN knockout (AID 1047); format: functional;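 also: HCT116 colon tumor cells with PTEN knocked out; cells exposed to compound for 60 hours before readout; potency for loss of cell viability measured by luminescence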
[14] = growth suppression of beta-catenin-knockout colon cells, dose response, cell-based, HCT116, human colon tumor (AID 1045); format: functional;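 also: HCT116 colon tumor cells with beta catenin knocked out; cells exposed to compound for 60 hours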
[15] = cytotoxicity in HEK-293T cells, dose response, cytotoxicity control for BCR NF-kB inhibitor project, luminescence, B-cell screen hits (AID 489021); format: functional, cell-based;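 also: HEK-293T cells carrying an NF-kB luciferase reporter; cells exposed to compound for about 14 hours before viability readout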
Melanocortin receptor 4 = Melanocortin receptor 4 (Homo sapiens, UniProt P32245); assay: MC4R antagonist potency on cAMP, dose response, cell-based, TR-FRET, biased antagonists (AID 602298); format: functional;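 also: antagonist potency against agonist-stimulated cAMP production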
[16] = Shn3 3'UTR reporter inhibitors, dose response, cell-based, Clone20 osteoblasts, firefly luciferase, cherry-picked (AID 624132); format: functional;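 also: firefly luciferase luminescence from reporter carrying the Shn3 3'UTR in osteoblasts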
[17] = HepG2 cell cytotoxicity, dose response, cytotoxicity control for Shn3 inhibitor project, CellTiter-Glo, cherry-picked (AID 624134); format: functional, cell-based
[18] = control 3'UTR Renilla luciferase suppression, dose response, counter-screen for Shn3 inhibitor project, cell-based, Clone20-Shn3RL, cherry-picked (AID 624133); format: functional
[19] = nonselective inhibitors of cellular cAMP signaling, dose response, counter-screen for MC4R biased antagonist project, cell-based, TR-FRET cAMP detection (AID 602305); format: functional;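 also: U2OS cells stimulated with forskolin near its EC80 as the cAMP inducer; potency is for inhibition of forskolin-stimulated cAMP signaling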
[20] = A549 cell cytotoxicity, dose response, cytotoxicity control, plate reader, cherry-pick, antagonist series (AID 743412); format: functional, cell-based
[21] = HepG2 cell cytotoxicity, dose response, cytotoxicity control, plate reader, cherry-pick, antagonist series (AID 743416); format: functional, cell-based
[22] = LGR2 antagonists, dose response, cell-based, HEK293, CRE-luciferase reporter, cherry pick, set 2 (AID 743343); format: functional;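 also: transfected cells were stimulated with diluted bursicon conditioned medium after compound addition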
[23] = MC4R antagonists, dose response, counter-screen for LGR2 antagonist project, cell-based, plate reader, cherry pick (AID 743444); format: functional;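 also: transfected HEK 293 cells stimulated with alpha-MSH peptide; potency of inhibitors of the alpha-MSH evoked signal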
[24] = HEK293 cell cytotoxicity, dose response, cytotoxicity control, plate reader, cherry-picked samples (AID 743446); format: functional, cell-based
[25] = A Cell Based Secondary Assay To Explore Cytotoxicity of Compounds that Sensitize Mycobacterium Tuberculosis to Beta-Lactam Antibiotics.; format: functional
CHO = assay: cytotoxicity in TLR9-MyD88 CHO cells, dose response, cytotoxicity control for TLR9-MyD88 binding inhibitor project, cell-based, luminescence (AID 588339); format: functional, hamster; conditions: Cricetulus griseus;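 also: CHO cells stably coexpressing TLR9 and MyD88 fusions from primary screen; compound exposure lasted 48 hours before viability readout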
[26] = target: T1, Endoribonuclease toxin MazF (Escherichia coli K-12, UniProt P0AE70); assay: MazF toxin RNase activators, dose response, biochemical, fluorescence, single-stranded RNA substrate, uHTS hits (AID 588481); format: functional
T1 sequence (P0AE70 whole entry): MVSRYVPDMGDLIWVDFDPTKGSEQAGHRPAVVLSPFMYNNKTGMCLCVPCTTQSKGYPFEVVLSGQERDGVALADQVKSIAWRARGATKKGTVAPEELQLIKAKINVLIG

Beta Lactamase = Beta Lactamase (Pseudomonas aeruginosa, UniProt Q932Y6); assay: beta-lactamase reporter inhibitor potency, dose response, artefact control for TLR9-MyD88 binding inhibitor project, BLA reporter cells, FRET fluorescence (AID 588341); format: cell-based;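 also: cell based assay in CHO-K1 cells stably expressing beta-lactamase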
[27] = target: T1, Endoribonuclease toxin MazF; assay: fluorescent RNA oligo signal without MazF, dose response, counter-screen for MazEF activator project, biochemical, fluorescence, single-stranded RNase substrate (AID 588502); format: functional
Vero = Vero cell cytotoxicity, cytotoxicity control for flavivirus capping enzyme inhibitors (AID 588742); format: functional; conditions: Chlorocebus sabaeus
Genome polyprotein = Genome polyprotein (dengue virus type 2, UniProt P29990); assay: Dengue-2 NS5 methyltransferase inhibitors, primary screen, biochemical, confirmation dose response (AID 588689); format: functional
[28] = target: Dual specificity protein kinase CLK1 (Homo sapiens, UniProt P49759); assay: CLK1 kinase inhibitors, off-target check, dose response, selectivity assay for Dyrk1A inhibitor project, biochemical, cherry-picked samples (AID 588811)
[29] = target: Beta-2 adrenergic receptor (Homo sapiens, UniProt P07550); assay: beta2AR agonists driving receptor internalization, dose response, cell-based, FAP fluorogen, flow cytometry, cherry pick 1 (AID 588763); format: functional
DNA topoisomerase = DNA topoisomerase (Yersinia pestis, UniProt A0A2S9PM60); assay: Y. pestis Topo-I inhibitors, cleavage product readout, dose response, biochemical, cherry-pick (AID 588525)
DNA topoisomerase, sequence (A0A2S9PM60 whole entry): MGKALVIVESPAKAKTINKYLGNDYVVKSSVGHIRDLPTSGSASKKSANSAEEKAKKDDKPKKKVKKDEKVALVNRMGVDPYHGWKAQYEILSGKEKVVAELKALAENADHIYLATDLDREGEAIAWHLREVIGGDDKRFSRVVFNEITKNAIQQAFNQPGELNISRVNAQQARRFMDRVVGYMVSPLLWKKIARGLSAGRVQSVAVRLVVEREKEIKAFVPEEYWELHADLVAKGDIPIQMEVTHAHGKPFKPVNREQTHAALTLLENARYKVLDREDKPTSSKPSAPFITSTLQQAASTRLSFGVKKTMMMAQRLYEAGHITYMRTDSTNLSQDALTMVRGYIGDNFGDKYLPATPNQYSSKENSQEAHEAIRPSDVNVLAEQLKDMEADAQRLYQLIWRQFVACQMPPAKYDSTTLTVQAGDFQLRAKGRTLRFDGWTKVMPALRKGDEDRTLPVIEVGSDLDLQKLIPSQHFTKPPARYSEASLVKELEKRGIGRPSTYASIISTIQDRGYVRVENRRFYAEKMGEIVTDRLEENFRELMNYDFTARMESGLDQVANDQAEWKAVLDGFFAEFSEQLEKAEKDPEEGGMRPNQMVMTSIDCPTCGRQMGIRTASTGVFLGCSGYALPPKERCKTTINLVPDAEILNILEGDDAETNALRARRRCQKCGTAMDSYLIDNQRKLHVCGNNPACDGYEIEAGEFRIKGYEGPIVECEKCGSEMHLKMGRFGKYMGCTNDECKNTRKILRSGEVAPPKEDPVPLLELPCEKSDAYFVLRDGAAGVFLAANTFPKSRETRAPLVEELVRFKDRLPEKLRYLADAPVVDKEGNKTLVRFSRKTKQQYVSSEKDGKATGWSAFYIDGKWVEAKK

Dual specificity protein kinase CLK1, sequence (P49759 whole entry): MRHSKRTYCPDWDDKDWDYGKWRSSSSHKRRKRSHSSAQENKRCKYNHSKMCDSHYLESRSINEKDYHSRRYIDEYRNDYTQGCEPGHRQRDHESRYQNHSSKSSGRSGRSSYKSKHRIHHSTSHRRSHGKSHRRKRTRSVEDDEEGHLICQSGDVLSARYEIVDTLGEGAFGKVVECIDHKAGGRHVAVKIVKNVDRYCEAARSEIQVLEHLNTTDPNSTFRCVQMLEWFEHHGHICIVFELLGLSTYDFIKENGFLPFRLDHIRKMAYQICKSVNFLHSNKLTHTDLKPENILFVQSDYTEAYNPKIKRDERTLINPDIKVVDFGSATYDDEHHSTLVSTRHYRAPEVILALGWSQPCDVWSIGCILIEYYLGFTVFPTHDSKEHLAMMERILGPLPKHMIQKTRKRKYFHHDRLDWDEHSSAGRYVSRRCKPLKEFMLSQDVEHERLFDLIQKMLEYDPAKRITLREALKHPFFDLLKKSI
Melanocortin receptor 4, sequence (P32245 whole entry): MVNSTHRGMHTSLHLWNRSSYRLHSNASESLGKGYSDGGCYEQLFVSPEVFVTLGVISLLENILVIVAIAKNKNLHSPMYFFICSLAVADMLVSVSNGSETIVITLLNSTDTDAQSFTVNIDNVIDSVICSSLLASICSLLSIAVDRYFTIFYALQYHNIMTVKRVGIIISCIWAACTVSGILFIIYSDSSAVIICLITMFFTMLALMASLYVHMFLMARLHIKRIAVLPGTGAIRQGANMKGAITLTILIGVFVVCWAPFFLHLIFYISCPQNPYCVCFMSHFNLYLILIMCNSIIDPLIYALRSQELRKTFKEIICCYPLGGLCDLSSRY
Sphingosine 1-phosphate receptor 2, sequence (O95136 whole entry): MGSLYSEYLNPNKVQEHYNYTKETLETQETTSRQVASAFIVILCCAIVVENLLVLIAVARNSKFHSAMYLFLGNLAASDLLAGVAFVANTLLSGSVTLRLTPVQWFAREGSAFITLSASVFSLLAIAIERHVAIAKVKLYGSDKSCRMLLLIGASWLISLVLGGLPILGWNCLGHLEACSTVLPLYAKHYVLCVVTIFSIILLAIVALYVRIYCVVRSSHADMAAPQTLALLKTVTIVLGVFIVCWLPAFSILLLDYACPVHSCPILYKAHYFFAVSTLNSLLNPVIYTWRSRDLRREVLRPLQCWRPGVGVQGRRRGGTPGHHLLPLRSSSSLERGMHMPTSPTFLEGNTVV
Genome polyprotein, sequence (P29990 2492-3391 limits assumed): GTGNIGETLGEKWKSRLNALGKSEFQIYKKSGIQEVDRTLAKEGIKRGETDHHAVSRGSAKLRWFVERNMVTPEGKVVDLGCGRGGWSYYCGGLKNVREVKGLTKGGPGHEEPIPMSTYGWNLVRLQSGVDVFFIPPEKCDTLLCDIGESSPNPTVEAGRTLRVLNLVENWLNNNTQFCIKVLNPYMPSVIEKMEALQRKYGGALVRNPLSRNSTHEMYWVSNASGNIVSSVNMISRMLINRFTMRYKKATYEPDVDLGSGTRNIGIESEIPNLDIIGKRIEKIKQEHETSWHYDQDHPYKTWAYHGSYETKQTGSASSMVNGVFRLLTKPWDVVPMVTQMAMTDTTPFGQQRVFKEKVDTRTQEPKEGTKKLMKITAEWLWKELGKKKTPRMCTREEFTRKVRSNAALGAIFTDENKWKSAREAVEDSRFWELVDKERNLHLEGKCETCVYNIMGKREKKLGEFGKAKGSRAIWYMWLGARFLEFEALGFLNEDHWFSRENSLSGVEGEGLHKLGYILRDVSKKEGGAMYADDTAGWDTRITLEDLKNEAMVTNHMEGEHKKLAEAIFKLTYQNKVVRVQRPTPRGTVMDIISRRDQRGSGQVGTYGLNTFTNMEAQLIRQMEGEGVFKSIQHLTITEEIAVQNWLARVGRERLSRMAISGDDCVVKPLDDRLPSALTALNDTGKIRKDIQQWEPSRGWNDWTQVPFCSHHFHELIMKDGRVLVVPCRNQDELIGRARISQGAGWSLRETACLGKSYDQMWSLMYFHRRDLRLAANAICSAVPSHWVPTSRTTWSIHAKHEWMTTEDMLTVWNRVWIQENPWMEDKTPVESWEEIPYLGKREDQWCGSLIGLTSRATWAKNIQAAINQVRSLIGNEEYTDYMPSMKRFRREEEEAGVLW
Latent membrane protein 1, sequence (P03230 whole entry): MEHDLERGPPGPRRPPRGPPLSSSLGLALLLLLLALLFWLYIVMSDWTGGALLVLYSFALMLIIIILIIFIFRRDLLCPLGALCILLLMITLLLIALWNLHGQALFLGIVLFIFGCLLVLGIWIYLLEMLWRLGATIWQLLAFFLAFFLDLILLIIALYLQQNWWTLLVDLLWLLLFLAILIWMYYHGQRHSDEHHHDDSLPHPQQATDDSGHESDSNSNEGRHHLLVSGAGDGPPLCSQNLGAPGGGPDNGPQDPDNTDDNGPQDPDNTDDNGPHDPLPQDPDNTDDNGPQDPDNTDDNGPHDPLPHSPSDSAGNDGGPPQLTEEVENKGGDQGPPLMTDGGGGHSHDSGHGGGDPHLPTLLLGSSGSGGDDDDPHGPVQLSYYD
Beta-2 adrenergic receptor, sequence (P07550 whole entry): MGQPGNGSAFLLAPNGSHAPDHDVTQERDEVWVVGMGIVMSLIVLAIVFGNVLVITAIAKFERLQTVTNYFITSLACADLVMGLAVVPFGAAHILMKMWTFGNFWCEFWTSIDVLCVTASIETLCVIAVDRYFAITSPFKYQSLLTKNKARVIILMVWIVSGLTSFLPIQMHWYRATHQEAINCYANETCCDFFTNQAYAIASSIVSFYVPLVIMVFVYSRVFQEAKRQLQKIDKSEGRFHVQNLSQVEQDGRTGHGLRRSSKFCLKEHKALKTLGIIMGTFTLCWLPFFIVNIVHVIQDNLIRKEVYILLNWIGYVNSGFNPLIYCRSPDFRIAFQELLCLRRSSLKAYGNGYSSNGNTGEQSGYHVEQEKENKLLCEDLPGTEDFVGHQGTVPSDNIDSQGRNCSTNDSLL
Beta Lactamase, sequence (Q932Y6 whole entry): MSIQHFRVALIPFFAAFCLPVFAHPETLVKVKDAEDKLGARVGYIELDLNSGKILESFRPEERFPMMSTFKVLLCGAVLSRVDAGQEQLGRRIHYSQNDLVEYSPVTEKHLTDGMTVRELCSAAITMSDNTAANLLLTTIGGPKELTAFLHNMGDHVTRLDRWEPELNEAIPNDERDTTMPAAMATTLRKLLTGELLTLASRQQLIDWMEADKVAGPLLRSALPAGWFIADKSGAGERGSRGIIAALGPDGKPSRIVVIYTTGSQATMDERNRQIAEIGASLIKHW
Sphingosine 1-phosphate receptor 4, sequence (O95977 whole entry): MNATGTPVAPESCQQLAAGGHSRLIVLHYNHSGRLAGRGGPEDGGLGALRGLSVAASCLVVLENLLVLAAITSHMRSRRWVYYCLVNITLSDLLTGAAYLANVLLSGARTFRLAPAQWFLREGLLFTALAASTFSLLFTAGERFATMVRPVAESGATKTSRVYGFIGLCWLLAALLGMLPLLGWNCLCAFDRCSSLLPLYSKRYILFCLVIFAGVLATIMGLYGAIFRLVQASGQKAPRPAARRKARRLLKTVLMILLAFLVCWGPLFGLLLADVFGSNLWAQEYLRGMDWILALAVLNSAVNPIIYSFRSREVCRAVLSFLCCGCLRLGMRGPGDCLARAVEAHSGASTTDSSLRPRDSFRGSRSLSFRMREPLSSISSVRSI

SMILES: O=C(c1cc(C2CC2)on1)N(CC1CCCCC1)C1CCCCC1
- EC50 [1]: > 50 µM (inactive)
- EC50 [2]: > 50 µM (inactive)

SMILES: CCOC(=O)c1c(C)[nH]c(C(=O)N/N=C\c2ccccc2O)c1C
- EC50 [3]: > 120 µM (not active)
- IC50 [4]: 2.25 µM (active)
- EC50 (cells [5]): 6.77 µM (active)
- EC50 [6]: > 120 µM (not active)
- IC50 [7]: 1.99 µM (active)
- EC50 [8]: 8.44 µM (active)
- EC50 (cells [9]): 41.9 µM (active)
- AC50 [10]: 3.54 µM (active)
- AC50 (HEK293): 4.91 µM (active)
- AC50 [11]: 14.6 µM (active)
- AC50 (INS1): 1.69 µM (active)

SMILES: COc1ccc(-n2nnnc2S(=O)(=O)CC(=O)N2CCCCC2)cc1
- CC50 [12]: 11.3 µM (active)
- EC50 [13]: 10.6 µM (active)
- EC50 [14]: 10.9 µM (active)
- IC50 [15]: > 80 µM (inactive)
- IC50 (Melanocortin receptor 4): > 64.5 µM (inactive)
- AC50 [16]: 5.44 µM (active)
- AC50 [17]: 16.8 µM (active)
- AC50 [18]: 3.45 µM (active)
- IC50 [19]: > 64.5 µM (inactive)
- AC50 [20]: 13 µM (active)
- AC50 [21]: 8.89 µM (active)
- AC50 [22]: 7.53 µM (active)
- AC50 [23]: 7.63 µM (active)
- AC50 [24]: 13.6 µM (active)

SMILES: Nc1c(C(=O)c2cccs2)sc2nsc(SCCN3CCCCC3)c12
- CC50 [25]: > 40 µM (active)
- IC50 (CHO): > 49.8 µM (inactive)
- EC50 [26]: 12 µM (active)
- IC50 (Beta Lactamase): 9.89 µM (active)
- EC50 [27]: > 99 µM (inactive)

SMILES: CCc1ccc(N2C(=O)c3sc4nnc(-c5ccccc5)c(=O)n4c3C2=O)cc1
- CC50 (Vero): > 40 µM (active)
- IC50 (Genome polyprotein): 48.5 µM (active)

SMILES: c1cncc(CNc2ccnc(-c3ccc4cn[nH]c4c3)n2)c1
- AC50 [28]: 2.01 µM (active)

SMILES: O=C(CCCCCn1c(=O)[nH]c2ccsc2c1=O)NCc1ccc(F)cc1
- EC50 [29]: 0.0776 µM (active)

SMILES: CC(C)CN(C(=O)COC(=O)c1cc2ccccc2cc1O)c1c(N)n(Cc2ccccc2)c(=O)[nH]c1=O
- AC50 (DNA topoisomerase): 6.2 µM (active)
